Measured values published in patent US20250368647A1, “NITROGEN CONTAINING CONDENSED 2,3-DIHYDROQUINAZOLINONE COMPOUNDS AS NAV1.8 INHIBITORS” (GLAXOSMITHKLINE INTELLECTUAL PROPERTY DEVELOPMENT LIMITED, priority 2022, published 2025).
Where a name gives a salt, the structure may show the parent alone.

Target: human Nav1.8 (Homo sapiens (Human), UniProt Q9Y5Y9)
Assay: QPatch 48 HTX voltage-clamp electrophysiology, half inactivation state (V1/2) protocol, HEK293-Nav1.8 cells
Format: cell-based
Conditions: HEK293 cells expressing human Nav1.8, human Navβ1 and human TREK1, P2 current
Procedure, shortened: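 HEK293 cells co-expressing Navβ1 and TREK1 were voltage-clamped from −100 mV: a 20 ms step to 0 mV, 8 s inactivation at −46 mV, 20 ms at −100 mV, then a 20 ms P2 test step to 0 mV, repeated every 15 s. P2 current was normalized to vehicle and full block, corrected for run-down, and Hill-fitted (4–6 concentrations) for IC50.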

Sequence of human Nav1.8 (Q9Y5Y9 whole entry): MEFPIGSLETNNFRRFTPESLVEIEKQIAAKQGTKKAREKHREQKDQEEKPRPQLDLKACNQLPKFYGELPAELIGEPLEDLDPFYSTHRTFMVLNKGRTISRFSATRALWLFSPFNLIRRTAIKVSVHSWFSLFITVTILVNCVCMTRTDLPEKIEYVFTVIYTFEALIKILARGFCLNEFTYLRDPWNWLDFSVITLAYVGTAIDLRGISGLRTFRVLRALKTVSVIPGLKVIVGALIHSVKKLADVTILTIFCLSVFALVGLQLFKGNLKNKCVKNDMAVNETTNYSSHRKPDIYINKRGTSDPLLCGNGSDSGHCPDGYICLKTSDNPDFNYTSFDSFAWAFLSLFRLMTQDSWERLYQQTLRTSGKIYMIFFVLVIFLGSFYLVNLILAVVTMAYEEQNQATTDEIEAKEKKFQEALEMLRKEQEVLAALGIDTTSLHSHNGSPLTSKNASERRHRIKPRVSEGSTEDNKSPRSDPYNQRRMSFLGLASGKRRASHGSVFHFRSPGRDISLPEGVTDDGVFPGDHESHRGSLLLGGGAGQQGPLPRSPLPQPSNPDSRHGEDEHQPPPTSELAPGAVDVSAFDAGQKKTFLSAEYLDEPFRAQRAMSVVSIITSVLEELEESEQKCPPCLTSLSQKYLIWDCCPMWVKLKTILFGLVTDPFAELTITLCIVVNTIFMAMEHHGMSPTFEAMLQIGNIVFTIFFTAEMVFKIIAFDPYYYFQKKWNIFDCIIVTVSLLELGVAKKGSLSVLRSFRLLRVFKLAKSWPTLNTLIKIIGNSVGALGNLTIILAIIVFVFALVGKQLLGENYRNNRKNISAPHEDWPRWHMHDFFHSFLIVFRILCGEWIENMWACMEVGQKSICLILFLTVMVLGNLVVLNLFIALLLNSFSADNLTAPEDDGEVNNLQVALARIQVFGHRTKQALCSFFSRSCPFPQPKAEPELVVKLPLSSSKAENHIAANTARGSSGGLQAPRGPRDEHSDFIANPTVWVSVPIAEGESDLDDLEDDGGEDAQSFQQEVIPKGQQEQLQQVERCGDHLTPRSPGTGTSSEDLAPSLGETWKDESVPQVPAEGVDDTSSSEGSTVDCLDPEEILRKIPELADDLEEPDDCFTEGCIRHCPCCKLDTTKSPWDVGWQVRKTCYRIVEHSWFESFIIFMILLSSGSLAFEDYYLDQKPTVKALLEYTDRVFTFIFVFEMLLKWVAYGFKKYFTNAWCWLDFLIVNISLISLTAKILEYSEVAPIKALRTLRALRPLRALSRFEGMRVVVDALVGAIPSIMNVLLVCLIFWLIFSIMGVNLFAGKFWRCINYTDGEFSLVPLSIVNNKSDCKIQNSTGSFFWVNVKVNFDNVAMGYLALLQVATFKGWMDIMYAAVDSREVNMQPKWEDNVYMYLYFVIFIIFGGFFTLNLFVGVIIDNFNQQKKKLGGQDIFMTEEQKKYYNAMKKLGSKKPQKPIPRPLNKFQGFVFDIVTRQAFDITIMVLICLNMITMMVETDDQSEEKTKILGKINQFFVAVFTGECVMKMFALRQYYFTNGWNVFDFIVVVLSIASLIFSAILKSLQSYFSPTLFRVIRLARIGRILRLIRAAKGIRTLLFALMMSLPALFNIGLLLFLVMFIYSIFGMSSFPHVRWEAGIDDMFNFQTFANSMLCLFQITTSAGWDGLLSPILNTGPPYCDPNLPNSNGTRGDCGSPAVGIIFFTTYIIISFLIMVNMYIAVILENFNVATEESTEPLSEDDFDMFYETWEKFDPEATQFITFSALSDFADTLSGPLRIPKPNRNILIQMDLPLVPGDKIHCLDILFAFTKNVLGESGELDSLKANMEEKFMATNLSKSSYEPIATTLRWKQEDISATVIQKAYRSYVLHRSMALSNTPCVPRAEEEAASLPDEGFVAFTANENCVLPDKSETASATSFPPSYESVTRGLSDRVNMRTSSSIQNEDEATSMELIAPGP
Sequence of human Nav1.8 (Q07699 19-218 partner): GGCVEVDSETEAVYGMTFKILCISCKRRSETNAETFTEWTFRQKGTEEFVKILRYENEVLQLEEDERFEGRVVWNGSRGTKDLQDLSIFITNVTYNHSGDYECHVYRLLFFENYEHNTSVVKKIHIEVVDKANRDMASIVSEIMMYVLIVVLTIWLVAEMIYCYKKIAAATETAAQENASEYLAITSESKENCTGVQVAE

| Compound | Nav1.8, pIC50 |
| --- | --- |
| Cl.N#Cc1c(F)ccc2c1CNCCc1[nH]c(=O)ccc1N1CN2c2cc(C(F)(F)F)c(F)cc2C1=O [Example 82, 2,8-Difluoro-15,19-dioxo-3-(trifluoromethyl)-10,11,12,13,14,15-hexahydro-19H-5,18-methanodibenzo[c,f]pyrido[3,2-j][1,5,9]triazacyclotridecine-9-carbonitrile hydrochloride] | 7.9 |
| N#Cc1c(F)ccc2c1CNCCc1[nH]c(=O)ccc1N1CN2c2cc(F)c(F)cc2C1=O [Example 83, 2,3,8-Trifluoro-15,19-dioxo-10,11,12,13,14,15-hexahydro-19H-5,18-methano-dibenzo[c,f]pyrido[3,2-j][1,5,9]triazacyclotridecine-9-carbonitrile] | 6.8 |
| O=C1c2cc(F)c(F)cc2N2CN1c1ccc(=O)[nH]c1CCNCc1c2ccc(F)c1O.O=CO [Example 84, 2,3,8-Trifluoro-9-hydroxy-10,11,12,13-tetrahydro-19H-5,18-methanodibenzo-[c,f]pyrido[3,2-j][1,5,9]triazacyclotridecine-15,19(14H)-dione, formic acid salt] | 5.5 |
| Cl.O=C1c2cc(F)c(C(F)(F)F)cc2N2CN1c1ccc(=O)[nH]c1CCNCc1c2ccc(F)c1O [Example 85, 2,8-Difluoro-9-hydroxy-3-(trifluoromethyl)-10,11,12,13-tetrahydro-19H-5,18-methanodibenzo[c,f]pyrido[3,2-i][1,5,9]triazacyclotridecine-15,19(14H)-dione hydrochloride] | 6.4 |
| Cl.O=C1c2cc(F)c(F)cc2N2CN1c1ccc(=O)[nH]c1CCNCc1cc(OC(F)(F)F)ccc12 [Example 86, 2,3-Difluoro-8-(trifluoromethoxy)-10,11,12,13-tetrahydro-19H-5,18-methanodibenzo[c,f]pyrido[3,2-j][1,5,9]triazacyclotridecine-15,19(14H)-dione hydrochloride] | 7.5 |
| Cl.O=C1c2cc(F)c(F)cc2N2CN1c1ccc(=O)[nH]c1CCNCc1c2ccc(OC(F)(F)F)c1F [Example 87, 2,3,9-Trifluoro-8-(trifluoromethoxy)-10,11,12,13-tetrahydro-19H-5,18-methanodibenzo[c,f]pyrido[3,2-j][1,5,9]triazacyclotridecine-15,19(14H)-dione hydrochloride] | 7.9 |
| Cl.N#Cc1cc2c(cc1F)C(=O)N1CN2c2ccc(OC(F)(F)F)cc2CNCCc2[nH]c(=O)ccc21 [Example 88, 2-Fluoro-15,19-dioxo-8-(trifluoromethoxy)-10,11,12,13,14,15-hexahydro-19H-5,18-methanodibenzo[c,f]pyrido[3,2-j][1,5,9]triazacyclotridecine-3-carbonitrile hydrochloride] | 7.7 |
| Cl.N#Cc1cc2c(cc1F)C(=O)N1CN2c2ccc(OC(F)(F)F)c(F)c2CNCCc2[nH]c(=O)ccc21 [Example 89, 2,9-Difluoro-15,19-dioxo-8-(trifluoromethoxy)-10,11,12,13,14,15-hexahydro-19H-5,18-methanodibenzo[c,f]pyrido[3,2-j][1,5,9]triazacyclotridecine-3-carbonitrile hydrochloride] | 8.1 |
| O=C1c2cc(F)c(C(F)(F)F)cc2N2CN1c1ccc(=O)[nH]c1NCCCc1c2ccc(F)c1F [Example 92, 2,8,9-Trifluoro-3-(trifluoromethyl)-10,11,12,13-tetrahydro-19H-5,18-methano-dibenzo[f,i]pyrido[2,3-b][1,4,8]triazacyclotridecine-15,19(14H)-dione, methanesulfonic acid salt] | 8.4 |
| O=C1c2c(ccc(C(F)(F)F)c2F)N2CN1c1ccc(=O)[nH]c1NCCCc1c2ccc(F)c1F [Example 97, 1,8,9-Trifluoro-2-(trifluoromethyl)-10,11,12,13-tetrahydro-19H-5,18-methanodibenzo[f,i]pyrido-[2,3-b][1,4,8]triazacyclotridecine-15,19(14H)-dione] | 7.6 |
| O=C1c2cc(F)c(F)cc2N2CN1c1ccc(=O)[nH]c1NCCCc1c2ccc(F)c1F [Example 98, 2,3,8,9-Tetrafluoro-10,11,12,13-tetrahydro-19H-5,18-methanodibenzo[f,i]pyrido[2,3-b]-[1,4,8]triazacyclotridecine-15,19(14H)-dione, formic acid salt] | 7.6 |
| N#Cc1cc2c(cc1F)C(=O)N1CN2c2ccc(F)c(F)c2CCCNc2[nH]c(=O)ccc21 [Example 99, 2,8,9-Trifluoro-15,19-dioxo-10,11,12,13,14,15-hexahydro-19H-5,18-methano-dibenzo [f,i]pyrido[2,3-b][1,4,8]triazacyclotridecine-3-carbonitrile] | 7.7 |
| O=C1c2cc(F)c(C(F)(F)F)cc2N2CN1c1ccc(=O)[nH]c1CNCCc1cc(F)ccc12 [Example 102, 2,8-Difluoro-3-(trifluoromethyl)-10,11,12,13-tetrahydro-19H-5,18-methanodibenzo[b,l]pyrido[3,2-f][1,5,9]triazacyclotridecine-15,19(14H)-dione] | 7.1 |
| O=C1c2cc(C(F)(F)F)ccc2N2CN1c1ccc(=O)[nH]c1CNCCc1cc(F)ccc12 [Example 103, 8-Fluoro-2-(trifluoromethyl)-10,11,12,13-tetrahydro-19H-5,18-methanodibenzo[b,l]pyrido[3,2-f][1,5,9]triazacyclotridecine-15,19(14H)-dione] | 6.4 |
| O=C1c2cc(C(F)(F)F)ccc2N2CN1c1ccc(=O)[nH]c1CNCCCc1cc(F)ccc12 [Example 104, 3^4-Fluoro-2^6-(trifluoromethyl)-1^1,1^2,2^1,2^2,2^3,2^4-hexahydro-7-aza-2(3,1)quinazolina-1(5,6)-pyridina-3(1,2)-benzenacyclooctaphane-1^2,2^4-dione] | 6.9 |
| Cl.O=C1c2cc(F)c(C(F)(F)F)cc2N2CN1c1ccc(=O)[nH]c1CNCCCc1cc(F)ccc12 [Example 105, 2^6,3^4-Difluoro-2^7-(trifluoromethyl)-1^1,1^2,2^1,2^2,2^3,2^4-hexahydro-7-aza-2(3,1)-quinazolina-1(5,6)-pyridina-3(1,2)-benzenacyclooctaphane-1^2,2^4-dione hydrochloride] | 7.8 |
| Cl.O=C1c2cc(F)c(C(F)(F)F)cc2N2CN1c1ccc(=O)[nH]c1CNCCCc1c2ccc(F)c1F [Example 106, 2^6,3^3,3^4-Trifluoro-2^7-(trifluoromethyl)-1^1,1^2,2^1,2^2,2^3,2^4-hexahydro-7-aza-2(3,1)-quinazolina-1(5,6)-pyridina-3(1,2)-benzenacyclooctaphane-1^2,2^4-dione hydrochloride] | 8.1 |
| Cl.O=C1c2cc(F)c(C(F)(F)F)cc2N2CN1c1ccc(=O)[nH]c1CCCNCc1cc(F)ccc12 [Example 107, 2^6,3^4-Difluoro-2^7-(trifluoromethyl)-1^1,1^2,2^1,2^2,2^3,2^4-hexahydro-5-aza-2(3,1)-quinazolina-1(5,6)-pyridina-3(1,2)-benzenacyclooctaphane-1^2,2^4-dione hydrochloride] | 7.3 |

Now from value to compound:

| Nav1.8, pIC50 | Compound |
| --- | --- |
| 7.7 | O=C1c2cc(C(F)(F)F)c(F)cc2N2CN1c1ccc(=O)[nH]c1NCCCc1cc(F)ccc12 [Example 90, 3,8-Difluoro-2-(trifluoromethyl)-10,11,12,13-tetrahydro-19H-5,18-methanodibenzo[f,i]-pyrido[2,3-b][1,4,8]triazacyclotridecine-15,19(14H)-dione] |
| 7.9 | O=C1c2cc(F)c(F)cc2N2CN1c1ccc(=O)[nH]c1NCCCc1cc(F)ccc12 [Example 91, 2,3,8-Trifluoro-10,11,12,13-tetrahydro-19H-5,18-methanodibenzo[f,i]pyrido[2,3-b]-[1,4,8]triazacyclotridecine-15,19(14H)-dione] |
| 8.1 | O=C1c2cc(F)c(Cl)cc2N2CN1c1ccc(=O)[nH]c1NCCCc1cc(F)ccc12 [Example 93, 3-Chloro-2,8-difluoro-10,11,12,13-tetrahydro-19H-5,18-methanodibenzo[f,i]pyrido[2,3-b]-[1,4,8]triazacyclotridecine-15,19(14H)-dione] |
| 8.1 | O=C1c2cc(F)c(Cl)cc2N2CN1c1ccc(=O)[nH]c1NCCCc1c2ccc(F)c1F [Example 94, 3-Chloro-2,8,9-trifluoro-10,11,12,13-tetrahydro-19H-5,18-methanodibenzo[f,i]pyrido[2,3-b][1,4,8]triazacyclotridecine-15,19(14H)-dione] |
| 7.5 | N#Cc1cc2c(cc1F)C(=O)N1CN2c2ccc(F)cc2CCCNc2[nH]c(=O)ccc21 [Example 95, 2,8-Difluoro-15,19-dioxo-10,11,12,13,14,15-hexahydro-19H-5,18-methanodibenzo[f,i]pyrido-[2,3-b][1,4,8]triazacyclotridecine-3-carbonitrile] |
| 7.5 | O=C1c2cc(Cl)c(F)cc2N2CN1c1ccc(=O)[nH]c1NCCCc1cc(F)ccc12 [Example 96, 2-Chloro-3,8-difluoro-10,11,12,13-tetrahydro-19H-5,18-methanodibenzo[f,i]pyrido[2,3-b]-[1,4,8]triazacyclotridecine-15,19(14H)-dione] |
| 7.5 | Cl.N#Cc1cc2c(cc1Cl)C(=O)N1CN2c2ccc(F)cc2CCCNc2[nH]c(=O)ccc21 [Example 100, 2-Chloro-8-fluoro-15,19-dioxo-10,11,12,13,14,15-hexahydro-19H-5,18-methano-dibenzo[f,i]pyrido[2,3-b][1,4,8]triazacyclotridecine-3-carbonitrile, hydrochloride] |
| 7.8 | Cl.O=C1c2cc(Cl)c(F)cc2N2CN1c1ccc(=O)[nH]c1NCCCc1c2ccc(F)c1F [Example 101, 2-Chloro-3,8,9-trifluoro-10,11,12,13-tetrahydro-19H-5,18-methanodibenzo[f,i]pyrido[2,3-b]-[1,4,8]triazacyclotridecine-15,19(14H)-dione, hydrochloride] |
